Measurements as given in patent US20250171400A1, “AZA-HETEROCYCLYL CARBOXAMIDE AND RELATED COMPOUNDS AND THEIR USE IN TREATING MEDICAL CONDITIONS” (X-BIOTIX THERAPEUTICS, INC., priority 2021, published 2025).
pIC50: −log10 of the molar value. ≈ marks a conversion by molar mass, not a printed value. Where two headings read alike, the source gives them in different places.

Assays:
[1] = test system: P. aeruginosa PAO1 isogenic mutant deficient in MexA mediated efflux; test: broth microdilution minimum inhibition concentration assay; format: cell-based; conditions: Pseudomonas aeruginosa, PAO1, read-out: P. aeruginosa KO MIC
Method: (§1) Exemplary compounds from the above Examples were tested to determine their minimum inhibitory concentration (MIC) for exemplary strains of Eschericia and Pseudomonas bacteria using broth microdilution methods. Assay procedures and results are described below.
(§2) Broth microdilution assays were conducted according to Clinical and Laboratory Standards Institute guidelines (CLSI, M07-A11: Clinical and Laboratory Standards Institute. Methods for Dilution Antimicrobial Susceptibility Tests for Bacteria that Grow Aerobically; Approved Standard—11th Edition. Wayne, PA: CLSI, 2018.). Briefly, a 0.5 McFarland standard suspension was made from bacterial isolates on non-selective, solid media. The inocula were adjusted to give a bacterial concentration of 1×10^6 CFU/mL. Serial doubling-dilutions of each compound were prepared in cation-adjusted Mueller-Hinton broth (Sigma-Aldrich) in 96-well microdilution plates. A 50 μL aliquot of the inoculum was added to each microdilution plate and, within 15 minutes, incubated at 37° C. in air for 16-20 h. […] The test was controlled by the determination of piperacillin MIC against both E. coli ATCC 25922 and P. aeruginosa ATCC 27853 and ensuring accordance with the ranges published in CLSI supplementary document M100 (CLSI, M100Ed29: Clinical and Laboratory Standards Institute. Performance Standards for Antimicrobial Susceptibility Testing, 29th Edition. Wayne, PA: CLSI, 2018.).
(§3) Multiple enterobacteriaceae strains were tested, including E. coli ATCC 25922 and K. pneumoniae ATCC 43816. WT E. coli BW25113 was tested with an isogenic mutant deficient in acrA mediated efflux by clean deletion. WT P. aeruginosa PAO1 was tested with an isogenic mutant deficient in MexA mediated efflux by clean deletion.
(§4) Experimental results are provided in Table 4, which provides MIC values for wild-type E. coli BW25113 (“E. coli WT MIC”), an isogenic mutant deficient in acrA mediated efflux by clean deletion (“E. coli KO MIC”), wild-type P. aeruginosa PAO1 (“P. aeruginosa WT MIC”), and an isogenic mutant deficient in MexA mediated efflux by clean deletion (“[…]”).

[2] = test system: wild-type P. aeruginosa PAO1; test: as above; format: cell-based; conditions: Pseudomonas aeruginosa
Method: as §1, §2, §3, §4

[3] = test system: wild-type E. coli BW25113; test: as above; format: cell-based; conditions: Escherichia coli; wild-type E. coli BW25113, 37° C. 16-20 h; read-out: E. coli WT MIC
Method: as §1, §2, §3, §4

[4] = test system: E. coli BW25113 isogenic mutant deficient in acrA mediated efflux; test: as above; format: cell-based; conditions: Escherichia coli, BW25113, read-out: E. coli KO MIC
Method: as §1, §2, §3, §4

P. aeruginosa LpxC = P. aeruginosa LpxC (Pseudomonas aeruginosa (strain ATCC 15692 / DSM 22644 / CIP 104116 / JCM 14847 / LMG 12228 / 1C / PRS 101 / PAO1), UniProt P47205); test: biochemical; format: biochemical; conditions: 5 nM P. aeruginosa LpxC, 2.5 μM substrate, 1 hour at room temperature
Method: (§5) Exemplary compounds from the above Examples were tested for ability to inhibit LpxC activity using an in vitro substrate deacetylation assay with ADDA™ analysis. Assay procedures and results are described below.
(§6) For ADDA™ analysis, an aliquot of assay sample was withdrawn from each well of the 384-well plate and applied to a Hypercarb cartridge (Optimize Technologies, USA) under conditions designed to retain analytes of interest. Analytes were eluted using 1:1:2 acetone:acetonitrile:water containing 5 mM ammonium acetate then analysed by triple-quadrupole mass spectrometry. Mass spectrometry was carried out using electrospray ionization in negative ion mode.
For IC50 determinations, peak areas of the substrate and product were compared to compute the proportion of substrate reacted by the LpxC enzyme at each compound concentration.

E. coli LpxC = E. coli LpxC (Escherichia coli (strain K12), UniProt P0A725); test: in vitro substrate deacetylation assay for inhibition of LpxC (ADDA analysis); format: biochemical; conditions: 5 nM E. coli LpxC, 2.5 μM substrate, 1 hour at room temperature
Method: as §5
Dilutions of test compound were pre-incubated with 5 nM P. aeruginosa or E. coli LpxC for 10 minutes at room temperature in 50 mM NaH2PO4, 500 mM sucrose, 0.2 mg/mL BSA, pH 7.2 and <1% DMSO. Reactions were initiated by the addition of 2× substrate (UDP-3-O—(R-3-hydroxydecanoyl)-N-acetylglucosamine, Carbosynth Ltd, UK, for P. aeruginosa LpxC and UDP-3-O—(R-3-hydroxymyristoyl)-N-acetylglucosamine, BOC Sciences, USA, for E. coli LpxC), in 50 mM NaH2PO4, 0.5 mg/mL BSA, pH 7.2, to a final concentration of 2.5 μM. Reactions proceeded for 1 hour at room temperature prior to quenching with and equal volume of 2% acetic acid.
as §6, with “mode. Daughter ion peaks representing detected substrate (P. aeruginosa: parent Q1 mass=775.8 amu, daughter Q3 mass=384.7 amu E. coli: parent Q1 mass=833.0 amu, daughter Q3 mass=385.0 amu, collision energy=analyte specific, dwell time=50 ms) were identified using a multiple-reaction monitoring protocol.” for “mode.”
Total activity (0% inhibition) was obtained from reactions containing no compound, and 100% inhibition is defined as reactions in the presence of 1 μM CHIR-090 (N-[(1S,2R)-2-hydroxy-1-[(hydroxyamino)carbonyl]propyl]-4-[2-[4-(4-morpholinylmethyl)phenyl]ethynyl]-benzamide). For IC50 determinations, peak areas of the substrate and product were compared to compute the proportion of substrate reacted by the LpxC enzyme at each compound concentration. The fractional activity was converted to percentage inhibition and plotted against compound concentration in ActivityBase™ and fit using a four-parameter logistic using non-linear regression to yield the IC50 value.

[5] = PAO1, read-out: P. aeruginosa WT MIC
[6] = wild-type P. aeruginosa PAO1, 37° C. 16-20 h, read-out: P. aeruginosa WT MIC

E. coli LpxC, sequence (P0A725 whole entry): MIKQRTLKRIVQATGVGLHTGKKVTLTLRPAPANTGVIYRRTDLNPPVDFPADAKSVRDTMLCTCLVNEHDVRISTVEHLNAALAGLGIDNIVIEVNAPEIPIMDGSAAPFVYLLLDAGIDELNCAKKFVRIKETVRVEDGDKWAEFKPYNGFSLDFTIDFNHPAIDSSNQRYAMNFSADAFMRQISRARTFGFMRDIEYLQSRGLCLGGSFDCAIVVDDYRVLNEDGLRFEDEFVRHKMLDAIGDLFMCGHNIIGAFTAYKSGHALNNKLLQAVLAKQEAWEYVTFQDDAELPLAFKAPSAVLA

| SMILES | MIC [1] [µM] | MIC [2, 5] [µM] | MIC [3] [µM] | MIC [4] [µM] | pIC50 (P. aeruginosa LpxC) | pIC50 (E. coli LpxC) | MIC [2, 6] [µM] |
| --- | --- | --- | --- | --- | --- | --- | --- |
| CS(=O)(=O)CCN1C[C@H](NC(=O)[C@@H]2C[C@H](F)CN2)C[C@@H]1C(=O)NCc1ccc(C#CC#CC2CC2)cc1 [Example 9AP] | > 100 | > 100 | > 100 | > 100 | 6.00 to 7.00 | 5.60 to 6.30 | – |
| O=C(N[C@@H]1C[C@H](C(=O)NCc2ccc(C#Cc3ccc(CN4CCOCC4)cc3)cc2)N(C(=O)C2CC2)C1)[C@@H]1C[C@H](F)CN1 [Example 9AJ] | < 20 | – | 20 to 100 (≈ 12 to 60.2 µg/mL) | < 20 | > 7.30 | > 6.30 | > 100 |
| NCCC(=O)N1C[C@H](NC(=O)[C@@H]2C[C@H](F)CN2)C[C@@H]1C(=O)NCc1ccc(C#CC#CC2CC2)cc1 [Example 9M] | > 100 | > 100 | > 100 | > 100 | 7.00 to 7.30 | 5.00 to 5.60 | – |
| CC(C)C(=O)N1C[C@H](NC(=O)[C@@H]2C[C@H](F)CN2)C[C@@H]1C(=O)NCc1ccc(C#Cc2ccc(CN3CCOCC3)cc2)cc1 [Example 9D] | < 20 | > 100 | 20 to 100 (≈ 12.1 to 60.4 µg/mL) | < 20 | > 7.30 | > 6.30 | – |
| CC(C)C(=O)N1C[C@H](NC(=O)[C@H]2NCC[C@@H]2O)C[C@@H]1C(=O)NCc1ccc(C#Cc2ccc(CN3CCOCC3)cc2)cc1 [Example 9AA] | 20 to 100 (≈ 12 to 60.2 µg/mL) | > 100 | > 100 | > 100 | > 7.30 | 5.60 to 6.30 | – |
| N[C@H]1C[C@H](C(=O)N2C[C@H](NC(=O)[C@@H]3C[C@H](F)CN3)C[C@@H]2C(=O)NCc2ccc(C#CC#CC3CC3)cc2)C1 [Example 9AF] | > 100 | > 100 | > 100 | > 100 | 7.00 to 7.30 | 5.60 to 6.30 | – |
| CC(C)C(=O)N1C[C@H](NC(=O)[C@@H]2C[C@@H](F)CN2)C[C@@H]1C(=O)NCc1ccc(C#CC#CC2CC2)cc1 [Example 9I] | > 100 | > 100 | > 100 | > 100 | 6.00 to 7.00 | 5.00 to 5.60 | – |
| CC(C)C(=O)N1C[C@H](NC(=O)[C@@H]2C[C@@H](O)CN2)C[C@@H]1C(=O)NCc1ccc(C#Cc2ccc(CN3CCOCC3)cc2)cc1 [Example 9Y] | 20 to 100 (≈ 12 to 60.2 µg/mL) | > 100 | > 100 | 20 to 100 (≈ 12 to 60.2 µg/mL) | 7.00 to 7.30 | > 6.30 | – |
| CC(C)C(=O)N1C[C@H](NC(=O)[C@H]2NCC[C@H]2O)C[C@@H]1C(=O)NCc1ccc(C#Cc2ccc(CN3CCOCC3)cc2)cc1 [Example 9V] | > 100 | > 100 | > 100 | > 100 | 6.00 to 7.00 | 5.00 to 5.60 | – |
| CC(C)C(=O)N1C[C@H](NC(=O)[C@H]2NCC[C@H]2O)C[C@@H]1C(=O)NCc1ccc(C#CC#CC2CC2)cc1 [Example 9W, (2R,4R)—N-(4-(cyclopropylbuta-1,3-diyn-1-yl)benzyl)-4-((2S,3R)-3-hydroxypyrrolidine-2-carboxamido)-1-isobutyrylpyrrolidine-2-carboxamide] | > 100 | > 100 | > 100 | > 100 | 6.00 to 7.00 | < 5.00 | – |
| O=C(N[C@@H]1C[C@H](C(=O)NCc2ccc(C#CC#CC3CC3)cc2)N(CCO)C1)[C@@H]1C[C@H](F)CN1 [Example 9AQ] | > 100 | > 100 | > 100 | > 100 | 6.00 to 7.00 | 5.00 to 5.60 | – |
| CC(C)C(=O)N1C[C@H](NC(=O)[C@@H]2CCCN2)C[C@@H]1C(=O)NCc1ccc(C#CC#CC2CC2)cc1 [Example 9L] | 20 to 100 (≈ 9.49 to 47.5 µg/mL) | > 100 | > 100 | 20 to 100 (≈ 9.49 to 47.5 µg/mL) | 6.00 to 7.00 | 5.60 to 6.30 | – |
| C[C@H](CN)C(=O)N1C[C@H](NC(=O)[C@@H]2C[C@H](F)CN2)C[C@@H]1C(=O)NCc1ccc(C#CC#CC2CC2)cc1 [Example 9N] | > 100 | > 100 | > 100 | > 100 | 7.00 to 7.30 | 5.60 to 6.30 | – |
| CC(C)C(=O)N1C[C@H](NC(=O)[C@@H]2CCCN2)C[C@@H]1C(=O)NCc1ccc(C#Cc2ccc(CN3CCOCC3)cc2)cc1 [Example 9K] | 20 to 100 (≈ 11.7 to 58.6 µg/mL) | > 100 | > 100 | 20 to 100 (≈ 11.7 to 58.6 µg/mL) | 7.00 to 7.30 | 5.60 to 6.30 | – |
| CC(C)C(=O)N1C[C@H](NC(=O)[C@H]2NCC[C@@H]2O)C[C@@H]1C(=O)NCc1ccc(C#CC#CC2CC2)cc1 [Example 9AB] | 20 to 100 (≈ 9.81 to 49.1 µg/mL) | > 100 | > 100 | 20 to 100 (≈ 9.81 to 49.1 µg/mL) | > 7.30 | 5.60 to 6.30 | – |
| CC(C)C(=O)N1C[C@H](NC(=O)[C@@H]2C[C@H](F)CN2)C[C@@H]1CNC(=O)c1ccc(C#Cc2ccc(CN3CCOCC3)cc2)cc1 [Example 5, (2S,4S)-4-Fluoro-N-((3R,5R)-1-isobutyryl-5-((4-((4-(morpholinomethyl)phenyl)ethynyl)benzamido)methyl)pyrrolidin-3-yl)pyrrolidine-2-carboxamide] | < 20 | – | < 20 | < 20 | > 7.30 | > 6.30 | > 100 |
| CC(C)C(=O)N1C[C@H](NC(=O)[C@@H]2C[C@H](F)CN2)C[C@@H]1C(=O)NCc1ccc(C#CC#Cc2ccccc2)cc1 [Example 9AT] | < 20 | – | > 100 | < 20 | > 7.30 | 5.60 to 6.30 | > 100 |
| COCCN(C(=O)[C@@H]1C[C@H](F)CN1)[C@@H]1C[C@H](C(=O)NCc2ccc(C#Cc3ccc(CN4CCOCC4)cc3)cc2)N(C(=O)C2CC2)C1 [Example 9AV, (2R,4R)-1-(Cyclopropanecarbonyl)-4-((2S,4S)-4-fluoro-N-(2-methoxyethyl)pyrrolidine-2-carboxamido)-N-(4-((4-(morpholinomethyl)phenyl)ethynyl)benzyl)pyrrolidine-2-carboxamide] | > 100 | – | > 100 | > 100 | < 6.00 | < 5.00 | > 100 |
